Reference: patent US20210009564A1, “CALPAIN MODULATORS AND THERAPEUTIC USES THEREOF” (BLADE THERAPERTICS, INC., priority 2018, published 2021)
Structures can show the parent of a compound that is named as a salt.

Legend:
[1] = system: Calpain activity in SH-SY5Y cells; assay: SH-SY5Y spectrin breakdown product (SBDP-150) western blot assay; type: cell-based; details: SH-SY5Y cells, 25 uM A23187, SBDP-150 western blot, read-out: SH-SY5Y Spectrin IC50
Human Calpain 9/NS1 = target: T1, Human Calpain 9/NS1 (Homo sapiens, UniProt O14815); assay: Calpain inhibition, continuous fluorescence (FRET substrate) assay, calpain 9; type: biochemical; details: SensoLyte 520 FRET substrate, 25C
T1 sequence (O14815 1-690): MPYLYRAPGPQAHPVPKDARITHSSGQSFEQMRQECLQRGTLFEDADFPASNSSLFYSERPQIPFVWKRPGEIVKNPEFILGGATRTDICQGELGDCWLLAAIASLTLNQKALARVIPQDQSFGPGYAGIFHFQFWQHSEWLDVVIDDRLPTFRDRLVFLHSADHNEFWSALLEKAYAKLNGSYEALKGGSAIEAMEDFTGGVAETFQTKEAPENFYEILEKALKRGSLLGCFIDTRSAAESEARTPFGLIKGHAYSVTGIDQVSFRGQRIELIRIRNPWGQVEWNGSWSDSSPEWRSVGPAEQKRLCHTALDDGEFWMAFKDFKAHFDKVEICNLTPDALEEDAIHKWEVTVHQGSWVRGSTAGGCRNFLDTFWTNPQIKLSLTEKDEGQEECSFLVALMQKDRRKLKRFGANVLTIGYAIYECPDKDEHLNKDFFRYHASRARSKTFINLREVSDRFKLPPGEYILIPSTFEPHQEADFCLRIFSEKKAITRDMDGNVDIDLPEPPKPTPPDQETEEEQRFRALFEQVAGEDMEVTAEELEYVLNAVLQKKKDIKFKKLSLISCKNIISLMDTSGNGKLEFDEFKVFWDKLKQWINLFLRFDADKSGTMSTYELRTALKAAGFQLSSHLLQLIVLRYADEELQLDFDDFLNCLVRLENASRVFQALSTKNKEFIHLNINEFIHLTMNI
T1 sequence (P04632 1-268 partner): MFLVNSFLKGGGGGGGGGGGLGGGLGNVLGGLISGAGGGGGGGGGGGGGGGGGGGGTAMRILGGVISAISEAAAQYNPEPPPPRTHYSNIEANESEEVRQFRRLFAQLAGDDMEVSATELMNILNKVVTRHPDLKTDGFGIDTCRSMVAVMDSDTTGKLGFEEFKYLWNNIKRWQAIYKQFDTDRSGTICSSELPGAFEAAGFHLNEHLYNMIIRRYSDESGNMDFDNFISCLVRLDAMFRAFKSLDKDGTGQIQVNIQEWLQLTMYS
How it was run: (§1)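 Continuous FRET read-out (ex 490/em 520 nm) of 5-FAM/QXL 520 substrate cleavage, started by adding substrate with CaCl2 for in-situ activation after enzyme–inhibitor preincubation at 25 °C. Buffer was Tris 50 mM pH 7.5, NaCl 100 mM, DTT 1 mM. IC50 fitted (4-parameter) from rates over 1-5 min.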

[2] = system: Calpain activity in SH-SY5Y cells; assay: SH-SY5Y Suc-LLVY-AMC fluorescence assay; type: cell-based; details: SH-SY5Y cells, 100 uM Suc-LLVY-AMC, read-out: SH-SY5Y + AMC IC50
Human Calpain 2/NS1 = target: T2, Human Calpain 2/NS1 (Homo sapiens, UniProt P17655); assay: Calpain inhibition, continuous fluorescence (FRET substrate) assay, calpain 2; type: biochemical; details: SensoLyte 520 FRET substrate, 25C
T2 sequence (P17655 1-700): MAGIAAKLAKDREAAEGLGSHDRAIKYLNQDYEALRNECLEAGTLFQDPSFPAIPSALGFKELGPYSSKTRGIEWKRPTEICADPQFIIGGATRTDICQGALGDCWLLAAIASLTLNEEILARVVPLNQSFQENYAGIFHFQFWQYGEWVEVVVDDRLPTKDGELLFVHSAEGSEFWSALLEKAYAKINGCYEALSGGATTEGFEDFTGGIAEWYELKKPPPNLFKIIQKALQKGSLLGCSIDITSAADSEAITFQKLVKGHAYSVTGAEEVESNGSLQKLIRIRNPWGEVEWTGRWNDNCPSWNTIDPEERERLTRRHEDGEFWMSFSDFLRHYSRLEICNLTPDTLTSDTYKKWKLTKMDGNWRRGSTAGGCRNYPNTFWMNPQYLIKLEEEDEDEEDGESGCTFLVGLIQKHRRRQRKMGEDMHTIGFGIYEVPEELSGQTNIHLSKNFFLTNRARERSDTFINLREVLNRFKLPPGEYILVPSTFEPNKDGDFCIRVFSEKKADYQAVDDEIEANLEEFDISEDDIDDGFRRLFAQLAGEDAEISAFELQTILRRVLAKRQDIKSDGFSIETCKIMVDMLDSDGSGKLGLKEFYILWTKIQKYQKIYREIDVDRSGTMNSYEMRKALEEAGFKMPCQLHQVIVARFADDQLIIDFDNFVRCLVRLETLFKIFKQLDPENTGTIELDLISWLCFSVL
T2 sequence (P04632 1-268 partner): T1 sequence (P04632 1-268 partner)
How it was run: as §1

Human Calpain 1/NS1 = target: T3, Human Calpain 1/NS1 (Homo sapiens, UniProt P07384); assay: Calpain inhibition, continuous fluorescence (FRET substrate) assay, calpain 1; type: biochemical; details: SensoLyte 520 FRET substrate, 25C
T3 sequence (P07384 1-714): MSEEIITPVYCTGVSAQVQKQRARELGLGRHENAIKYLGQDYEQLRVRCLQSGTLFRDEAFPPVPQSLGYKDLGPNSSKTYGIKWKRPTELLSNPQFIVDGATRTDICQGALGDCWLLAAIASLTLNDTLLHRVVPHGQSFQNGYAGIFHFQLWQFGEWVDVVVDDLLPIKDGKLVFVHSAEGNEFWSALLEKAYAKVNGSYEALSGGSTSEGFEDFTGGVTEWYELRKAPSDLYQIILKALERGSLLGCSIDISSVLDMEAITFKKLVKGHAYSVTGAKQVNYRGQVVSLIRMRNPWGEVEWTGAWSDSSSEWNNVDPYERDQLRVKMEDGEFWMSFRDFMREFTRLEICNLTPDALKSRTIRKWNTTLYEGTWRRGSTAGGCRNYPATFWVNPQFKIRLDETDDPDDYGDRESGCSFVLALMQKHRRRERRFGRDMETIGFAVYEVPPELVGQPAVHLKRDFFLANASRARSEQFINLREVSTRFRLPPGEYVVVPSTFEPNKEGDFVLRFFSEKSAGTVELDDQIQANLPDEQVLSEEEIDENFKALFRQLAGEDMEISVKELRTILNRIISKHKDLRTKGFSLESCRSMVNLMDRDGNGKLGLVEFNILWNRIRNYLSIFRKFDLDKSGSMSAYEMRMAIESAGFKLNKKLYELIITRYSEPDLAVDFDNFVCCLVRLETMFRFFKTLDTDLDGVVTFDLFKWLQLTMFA
T3 sequence (P04632 1-268 partner): T1 sequence (P04632 1-268 partner)
How it was run: as §1

SMILES	IC50 ([1]; Homo sapiens)	IC50 (Human Calpain 9/NS1)	IC50 ([2]; Homo sapiens)	IC50 (Human Calpain 2/NS1)	IC50 (Human Calpain 1/NS1)	IC50 [1]	IC50 [2]
Cn1cc(C(=O)NC(Cc2ccccc2)C(=O)C(=O)O)c(-c2cccc(F)c2)n1 (stereo not drawn) [Compound 72, 3-(3-(3-FLUOROPHENYL)-1-METHYL-1H-PYRAZOLE-4-CARBOXAMIDO)-2-OXO-4-PHENYLBUTANOIC ACID]	> 25 µM	< 3 µM	< 10 µM	< 3 µM	< 3 µM		
O=C(NC(Cc1ccccc1)C(=O)c1ncco1)c1nsnc1-c1ccccc1 (stereo not drawn) [Compound 85, N-(1-(OXAZOL-2-YL)-1-OXO-3-PHENYLPROPAN-2-YL)-4-PHENYL-1,2,5-THIADIAZOLE-3-CARBOXAMIDE]	> 25 µM	> 10 µM	< 10 µM	> 10 µM	> 10 µM		
NC(=O)C(=O)C(Cc1ccccc1)NC(=O)c1oc(C(F)F)nc1-c1cccc2cn[nH]c12 (stereo not drawn) [Compound 94, N-(4-AMINO-3,4-DIOXO-1-PHENYLBUTAN-2-YL)-2-(DIFLUOROMETHYL)-4-(1H-INDAZOL-7-YL)OXAZOLE-5-CARBOXAMIDE]		< 3 µM		< 3 µM	< 3 µM	< 10 µM	< 10 µM
Cn1ncc2c(-c3nn(C(F)F)cc3C(=O)NC(Cc3ccccc3)C(=O)C(N)=O)cccc21 (stereo not drawn) [Compound 62, N-(4-AMINO-3,4-DIOXO-1-PHENYLBUTAN-2-YL)-1-(DIFLUOROMETHYL)-3-(1-METHYL-1H-INDAZOL-4-YL)-1H-PYRAZOLE-4-CARBOXAMIDE]	< 10 µM	< 3 µM	< 10 µM	< 3 µM	< 3 µM		
NC(=O)C(=O)C(Cc1ccccc1)NC(=O)c1cn(C(F)F)nc1-c1ncnc2ccccc12 (stereo not drawn) [Compound 63, N-(4-AMINO-3,4-DIOXO-1-PHENYLBUTAN-2-YL)-1-(DIFLUOROMETHYL)-3-(QUINAZOLIN-4-YL)-1H-PYRAZOLE-4-CARBOXAMIDE]	10 to 25 µM	< 3 µM	< 10 µM	< 3 µM	< 3 µM		
NC(=O)C(=O)C(Cc1ccccc1)NC(=O)c1cn(C(F)F)nc1-c1nccc2ccccc12 (stereo not drawn) [Compound 4, N-(4-AMINO-3,4-DIOXO-1-PHENYLBUTAN-2-YL)-1-(DIFLUOROMETHYL)-3-(ISOQUINOLIN-1-YL)-1H-PYRAZOLE-4-CARBOXAMIDE]	> 25 µM	< 3 µM	< 10 µM	< 3 µM	< 3 µM		
Cn1cc(C(=O)NC(Cc2ccccc2)C(=O)C(N)=O)c(N2CCNCC2)n1 (stereo not drawn) [Compound 2, N-(4-AMINO-3,4-DIOXO-1-PHENYLBUTAN-2-YL)-1-METHYL-3-(PIPERAZIN-1-YL)-1H-PYRAZOLE-4-CARBOXAMIDE HYDROCHLORIDE]	> 25 µM	> 10 µM	10 to 25 µM	3 to 10 µM	> 10 µM		

Continued, in another order:

IC50 ([1]; Homo sapiens)	IC50 (Human Calpain 9/NS1)	IC50 ([2]; Homo sapiens)	IC50 (Human Calpain 2/NS1)	IC50 (Human Calpain 1/NS1)	SMILES	IC50 [1]	IC50 [2]
> 25 µM	< 3 µM	> 25 µM	< 3 µM	< 3 µM	Cn1cc(C(=O)NC(Cc2ccccc2)C(=O)C(N)=O)c(-c2cccc3cn(C)nc23)n1 (stereo not drawn) [Compound 99, N-(4-AMINO-3,4-DIOXO-1-PHENYLBUTAN-2-YL)-1-METHYL-3-(2-METHYL-2H-INDAZOL-7-YL)-1H-PYRAZOLE-4-CARBOXAMIDE]		
< 10 µM	< 3 µM	10 to 25 µM	< 3 µM	< 3 µM	Cn1cc(C(=O)NC(Cc2ccccc2)C(=O)C(N)=O)c(-c2cccc3ccsc23)n1 (stereo not drawn) [Compound 101, N-(4-AMINO-3,4-DIOXO-1-PHENYLBUTAN-2-YL)-3-(BENZO[b]THIOPHEN-7-YL)-1-METHYL-1H-PYRAZOLE-4-CARBOXAMIDE]		
< 10 µM	< 3 µM	< 10 µM	< 3 µM	< 3 µM	Cn1cc(C(=O)NC(Cc2ccccc2)C(=O)C(N)=O)c(-c2cccc3ncsc23)n1 (stereo not drawn) [Compound 6, N-(4-AMINO-3,4-DIOXO-1-PHENYLBUTAN-2-YL)-3-(BENZO[D]THIAZOL-7-YL)-1-METHYL-1H-PYRAZOLE-4-CARBOXAMIDE]		
< 10 µM	< 3 µM	10 to 25 µM	< 3 µM	< 3 µM	Cn1cc(C(=O)NC(Cc2ccccc2)C(=O)C(N)=O)c(-c2cccc3cn[nH]c23)n1 (stereo not drawn) [Compound 39, N-(4-AMINO-3,4-DIOXO-1-PHENYLBUTAN-2-YL)-3-(1H-INDAZOL-7-YL)-1-METHYL-1H-PYRAZOLE-4-CARBOXAMIDE]		
> 25 µM	< 3 µM	< 10 µM	< 3 µM	< 3 µM	COC(=O)C(=O)C(Cc1ccccc1)NC(=O)c1cn(C)nc1-c1ccccc1F (stereo not drawn) [Compound 40, METHYL 3-(3-(2-FLUOROPHENYL)-1-METHYL-1H-PYRAZOLE-4-CARBOXAMIDO)-2-OXO-4-PHENYLBUTANOATE]		
< 10 µM	< 3 µM	< 10 µM	< 3 µM	< 3 µM	Cc1nc(-c2cccc3ccsc23)c(C(=O)NC(Cc2ccccc2)C(=O)C(N)=O)o1 (stereo not drawn) [Compound 91, N-(4-AMINO-3,4-DIOXO-1-PHENYLBUTAN-2-YL)-4-(BENZO[b]THIOPHEN-7-YL)-2-METHYLOXAZOLE-5-CARBOXAMIDE]		
> 25 µM	< 3 µM	> 25 µM	< 3 µM	3 to 10 µM	Cn1cc(C(=O)NC(Cc2ccccc2)C(=O)C(N)=O)c(-c2nccc3ccccc23)n1 (stereo not drawn) [Compound 10, N-(4-AMINO-3,4-DIOXO-1-PHENYLBUTAN-2-YL)-3-(ISOQUINOLIN-1-YL)-1-METHYL-1H-PYRAZOLE-4-CARBOXAMIDE]		
10 to 25 µM	< 3 µM	10 to 25 µM	< 3 µM	< 3 µM	Cn1cc(C(=O)NC(Cc2ccccc2)C(=O)C(N)=O)c(-c2cccc3c2cnn3C)n1 (stereo not drawn) [Compound 32, N-(4-AMINO-3,4-DIOXO-1-PHENYLBUTAN-2-YL)-1-METHYL-3-(1-METHYL-1H-INDAZOL-4-YL)-1H-PYRAZOLE-4-CARBOXAMIDE]		
